In patent US11453640B2, “Small molecules for disrupting the super elongation complex and inhibiting transcription elongation for cancer therapy” (NORTHWESTERN UNIVERSITY, priority 2018, dated 2022):

Columns and labels:
[1] = tested on: MDA231-LM2 tumor; assay: MDA231-LM2 tumor model in athymic nude mice; format: in vivo; settings: 50 mg/kg once daily, 15 intraperitoneal injections
Protocol: FIG. 7. SEC disruptors delay tumor progression and improve survival of MDA231-LM2 tumor mice. (A) Schematic of the development of MDA231-LM2 tumors in athymic nude mice (Wang et al., 2017). 4×10^6 MDA231-LM2 cells were inoculated into the fat pads of nude mice. 17 days after injection, when the tumor reached 100 mm^3, mice were divided randomly into three groups. Drug treatments were performed with once daily with 50 mg/kg KL-1, 10 mg/kg KL-2 or PBS (vehicle) for a total of 15 intraperitoneal injections. (B-C) KL-1 and KL-2 delay the tumor growth in the MDA231-LM2 tumor mouse model. The average tumor sizes of the vehicle (n=6), KL-1 (n=7), and KL-2 (n=5) treated groups were plotted from day 5 to day 36 after inoculation (B). Representative tumors sizes are shown (C). […] A 2-way unpaired student's t-test was used for statistical analysis. (E) Kaplan-Meier survival curves of vehicle, KL-1, and KL-2 treated nude mice transplanted with 4×10^6MDA231-LM2 cells. 17 days after inoculation, vehicle (n=6), KL-1 (n=7), and KL-2 (n=5) were administered daily for 15 intraperitoneal injections. Mice were euthanized when the tumor size reached 1000 mm^3. Thep values were calculated using the log-rank test.
MDA231-LM2 Tumor Model. […] The tumor sizes were measured twice a week and the mice were euthanized when the tumor size reached 1000 mm^3.

[2] = tested on: Pol II; assay: 4sU-FP-seq measurement of Pol II transcription elongation rate in HEK293T cells; format: cell-based, human; settings: 20 μM pretreatment 5 hr, HMM analysis, 982 genes
Protocol: FIG. 4. Small molecule disruption of SEC slows Pol II elongation rates. (A) Workflow of 4sU-FP-seq based measurement of the transcription elongation rate of RNA Pol II. HEK293T cells were pretreated with vehicle or 20 μM SEC inhibitors for 5 hr before addition of the CDK9 inhibitor flavopiridol for 1 hr to arrest Pol II at the promoter-proximal pause site. Inhibitors are washed out with PBS before allowing transcription to proceed in the presence of with fresh medium containing 500 μM 4-Thiouridine (4sU) for 15 min. The 4sU-labeled RNA is then extracted and fragmented before purification, and followed with RNA-seq. (B) Genome browser tracks of 4sU-FP-seq for vehicle and SEC inhibitor-treated cells at the ACTN2 and MTR loci. […] (C) Heatmap analysis of 4sU-FP-seq in vehicle and the indicated SEC inhibitors in HEK293T cells. All genes longer than 50 kb (N=5,568) were plotted and ordered using the total 4sU-FP-seq signals in the vehicle-treated cells. (D) Metaplot of strand-specific 4sU-FP-seq signals in vehicle and SEC inhibitors-treated cells. […] Raw changes in 4sU-FP-seq read counts in non-overlapping 50 bp windows used to infer elongation rates for the MTR gene. […] (F-G) Histograms (F) and boxplots (G) comparing the transcription elongation rates for 982 genes in HEK293T cells for which high confidence elongation rates could be determined. […]

## COc1cccc(C(=O)CC(=O)C(=O)Nc2cc(Cl)ccc2C)c1 [KL-1, N-(5-chloro-2-methylphenyl)-4-oxo-4-(3-methoxyphenyl)-2-oxobutanamide]
[1]
  survival of the recipient mice: significantly extended survival
  tumor progression (tumor sizes): delayed tumor progression
[2]
  elongation rate of Pol II: decreased the elongation rate of Pol II
